According to patent US10633394B2, “Heterocyclic derivatives and use thereof” (C & C RESEARCH LABORATORIES, priority 2014, dated 2020):

Legend:
Assay type in all cases: cell-based
STAT3 = molecular target: T1, STAT3 (Homo sapiens, UniProt P40763); test: STAT3 reporter gene (luciferase) assay in LNCaP stable cell line stimulated with IL-6; conditions: LNCaP stable cell line (pSTAT3-TA-luc), IL-6 10 ng/mL, 24 hours
T1 construct: plasmid pSTAT3-TA-luc), which contains a stably operating STAT3 promoter; endogenous in cells
Experimental: 1-1) Experiment on the Inhibition of STAT3 Activity
A human prostate cancer cell line (LNCaP stable cell line; plasmid pSTAT3-TA-luc), which contains a stably operating STAT3 promoter, was cultured in RPMI1640 medium (Cat No. 11875, Life Technologies) containing 10% fetal bovine serum (FBS) (Cat No. SH30396, Thermo Scientific) and 150 μg/mL G-418 solution (Cat No. 04 727 894 001, Roche). The reporter gene assay using LNCaP stable cell line was performed in RPMI1640 medium containing 3% DCC-FBS without G-418 solution. LNCaP stable cells were plated in two (2) white 96-well plates with 30,000 cells/50 μL in each well. The cells were cultured at 37° C., under 5% CO2 for 24 hours, and then treated with the compounds listed in Examples which were diluted in various concentrations. Subsequently, IL-6 was added to each well with a final concentration of 10 ng/mL. Upon completion of the treatment with the compounds and IL-6, the cells were cultured at 37° C., under 5% CO2 for 24 hours. The plates were observed under microscope and drug precipitation and particular findings were investigated and recorded.
The luciferase assay and the cell viability assay were performed respectively with one of the two plates. For the luciferase assay, the liquid media in the 96-well plate was removed, and then, 20 μL of passive cell lysis buffer was added to each well. After shaking the plate for 30 minutes, luciferase activities of each well were measured in a PHERAstar™ microplate reader (BMG LABTECH) using a luciferase assay system (Cat No. E1501, Promega). For the cell viability assay, the 96-well plate was placed at room temperature for 30 minutes, added with 20 μL/well of CellTiter-Glo solution (Cat No. G7573, Promega), and shaken for 10 minutes in order to measure cytotoxicity caused by the compounds listed in Examples with a PHERAstar™ microplate reader (BMG LABTECH). Wells without 0.1% DMSO and stimulation were used as a negative control and wells with 0.1% DMSO and stimulation were used as a positive control.
The results of evaluation on the inhibitory effect of the compounds listed in the Examples on the dimerization of STAT3 and STAT1 obtained via the STAT3 and STAT1 reporter gene assays are shown in Table 6 below.

NCI-N87 = test: Cell growth inhibition assay (CellTiter-Glo), stomach cancer cell line NCI-N87; conditions: Homo sapiens; NCI-N87 cells, 96 hours
Experimental: (§1) The inhibitory effects of the compounds of the present invention against the growth of cancer cells were evaluated as shown below. The cancer cell lines including stomach cancer cell line (NCI-N87) and breast cancer cell line (MDA-MB-468) were cultured under the protocol provided by each supplier. Each type of cells to be used in experiments was sub-cultured in a 96-well plate by counting the exact number of cells using Tali™ Image-based Cytometer (Life Technologies). In a 96-well plate, NCI-N87 was employed with 5,000 cells/well; and MDA-MB-468 was employed with 10,000 cells/well. The cells were treated with the compounds listed in Examples which were diluted in various concentrations. Upon completion of the compounds treatment, NCI-N87 cells were cultured at 37° C. under 5% CO2 for 96 hours, and MDA-MB-468 cells were cultured at 37° C. in air for 96 hours. Subsequently, the cells were observed under microscope and drug precipitation and particular findings were investigated and recorded. And then, the 96-well plate was placed at room temperature for 30 minutes, added with 20 μL/well of CellTiter-Glo solution (Cat No. G7573, Promega) and shaken for 10 minutes, followed by being subjected to the measurement using PHERAstar™ microplate reader (BMG LABTECH) according to the supplier's general luminometer protocol. Wells where only culture liquid added without cell plating were used as a negative control, whereas wells where culture liquid containing 0.1% DMSO instead of the compounds listed in Examples were used as a positive control.

MDA-MB-468 = test: Cell growth inhibition assay (CellTiter-Glo), breast cancer cell line MDA-MB-468; conditions: Homo sapiens; MDA-MB-468 cells, 96 hours
Experimental: as §1

T1 sequence (P40763 whole entry): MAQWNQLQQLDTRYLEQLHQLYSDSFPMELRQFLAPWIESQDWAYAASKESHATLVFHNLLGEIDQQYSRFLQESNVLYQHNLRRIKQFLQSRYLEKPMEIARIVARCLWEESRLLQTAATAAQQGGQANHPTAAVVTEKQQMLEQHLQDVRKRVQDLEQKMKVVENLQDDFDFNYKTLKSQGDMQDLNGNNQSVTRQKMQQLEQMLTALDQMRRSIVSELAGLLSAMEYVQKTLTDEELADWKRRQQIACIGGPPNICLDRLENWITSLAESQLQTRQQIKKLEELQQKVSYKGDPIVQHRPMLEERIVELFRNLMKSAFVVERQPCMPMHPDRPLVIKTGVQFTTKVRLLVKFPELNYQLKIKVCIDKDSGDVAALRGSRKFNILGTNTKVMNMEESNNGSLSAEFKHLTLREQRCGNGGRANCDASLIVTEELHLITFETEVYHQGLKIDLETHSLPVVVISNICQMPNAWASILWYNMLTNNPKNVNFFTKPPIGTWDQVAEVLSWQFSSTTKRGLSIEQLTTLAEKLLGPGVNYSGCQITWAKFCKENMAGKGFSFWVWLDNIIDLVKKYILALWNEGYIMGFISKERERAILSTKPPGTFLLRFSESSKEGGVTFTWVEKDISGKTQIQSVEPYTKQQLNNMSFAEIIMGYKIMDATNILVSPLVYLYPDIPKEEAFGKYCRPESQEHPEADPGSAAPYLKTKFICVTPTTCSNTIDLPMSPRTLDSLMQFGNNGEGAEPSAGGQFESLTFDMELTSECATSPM

CS(=O)(=O)C1CCOc2cc3sc(C(=O)Nc4cc(Cl)nc(Oc5ccc(Cl)cc5)c4)cc3cc21 (racemic) [Example 8, N-(2-chloro-6-(4-chlorophenoxy)pyridin-4-yl)-4-(methylsulfonyl)-3,4-dihydro-2H-thieno[3,2-g]chromene-7-carboxamide]
IC50 (STAT3): 0.024 µM | IC50 (NCI-N87): 0.031 µM | IC50 (MDA-MB-468): 0.0032 µM

CS(=O)(=O)N1CCOc2cc3sc(C(=O)Nc4cc(Cl)nc(Oc5ccc(Cl)cc5)c4)cc3cc21 [Example 1, N-(2-chloro-6-(4-chlorophenoxy)pyridin-4-yl)-1-(methylsulfonyl)-2,3-dihydro-1H-thieno[3′,2′:4,5]benzo[1,2-b][1,4]oxazine-7-carboxamide]
IC50 (STAT3): 0.0026 µM | IC50 (NCI-N87): 0.0083 µM

CC1(C)CN(S(C)(=O)=O)c2cc3cc(C(=O)Nc4cc(Cl)nc(Oc5ccc(Cl)cc5)c4)sc3cc2O1 [Example 2, N-(2-chloro-6-(4-chlorophenoxy)pyridin-4-yl)-3,3-dimethyl-1-(methylsulfonyl)-2,3-dihydro-1H-thieno[3′,2′:4,5]benzo[1,2-b][1,4]oxazine-7-carboxamide]
IC50 (STAT3): 0.17 µM | IC50 (NCI-N87): 1.2 µM

CS(=O)(=O)N1CCCOc2cc3sc(C(=O)Nc4cc(Cl)nc(Oc5ccc(Cl)cc5)c4)cc3cc21 [Example 3, N-(2-chloro-6-(4-chlorophenoxy)pyridin-4-yl)-1-(methylsulfonyl)-1,2,3,4-tetrahydrothieno[3′,2′:4,5]benzo[1,2-b][1,4]oxazepine-8-carboxamide]
IC50 (STAT3): 0.01 µM | IC50 (NCI-N87): 0.045 µM

CC1(C)CCN(S(C)(=O)=O)c2cc3cc(C(=O)Nc4cc(Cl)nc(Oc5ccc(Cl)cc5)c4)sc3cc21 [Example 4, N-(2-chloro-6-(4-chlorophenoxy)pyridin-4-yl)-8,8-dimethyl-5-(methylsulfonyl)-5,6,7,8-tetrahydrothieno[2,3-g]quinoline-2-carboxamide]
IC50 (STAT3): 0.93 µM | IC50 (NCI-N87): 4.1 µM

CS(=O)(=O)N1CCCc2cc3sc(C(=O)Nc4cc(Cl)nc(Oc5ccc(Cl)cc5)c4)cc3cc21 [Example 6, N-(2-chloro-6-(4-chlorophenoxy)pyridin-4-yl)-5-(methylsulfonyl)-5,6,7,8-tetrahydrothieno[2,3-g]quinoline-2-carboxamide]
IC50 (STAT3): 0.003 µM | IC50 (NCI-N87): 0.0055 µM

CN1CCN(S(C)(=O)=O)c2cc3cc(C(=O)Nc4cc(Cl)nc(Oc5ccc(Cl)cc5)c4)sc3cc21 [Example 7, N-(2-chloro-6-(4-chlorophenoxy)pyridin-4-yl)-4-methyl-1-(methylsulfonyl)-1,2,3,4-tetrahydrothieno[2,3-g]quinoxaline-7-carboxamide]
IC50 (STAT3): 0.012 µM | IC50 (NCI-N87): 0.027 µM | IC50 (MDA-MB-468): 0.0065 µM

CS(=O)(=O)C1CCCOc2cc3sc(C(=O)Nc4cc(Cl)nc(Oc5ccc(Cl)cc5)c4)cc3cc21 (stereo not drawn) [Example 9, N-(2-chloro-6-(4-chlorophenoxy)pyridin-4-yl)-5-(methylsulfonyl)-2,3,4,5-tetrahydrothieno[3′,2′:4,5]benzo[1,2-b]oxepine-8-carboxamide]
IC50 (STAT3): 0.029 µM | IC50 (NCI-N87): 0.067 µM | IC50 (MDA-MB-468): 0.023 µM

CS(=O)(=O)C1CCCc2cc3sc(C(=O)Nc4cc(Cl)nc(Oc5ccc(Cl)cc5)c4)cc3cc21 (stereo not drawn) [Example 10, N-(2-chloro-6-(4-chlorophenoxy)pyridin-4-yl)-5-(methylsulfonyl)-5,6,7,8-tetrahydronaphtho[2,3-b]thiophene-2-carboxamide]
IC50 (STAT3): 0.0026 µM | IC50 (NCI-N87): 0.006 µM | IC50 (MDA-MB-468): 0.0019 µM

CC1(S(C)(=O)=O)CCOc2cc3sc(C(=O)Nc4cc(Cl)nc(Oc5ccc(Cl)cc5)c4)cc3cc21 (stereo not drawn) [Example 11, N-(2-chloro-6-(4-chlorophenoxy)pyridin-4-yl)-4-methyl-4-(methylsulfonyl)-3,4-dihydro-2H-thieno[3,2-g]chromene-7-carboxamide]
IC50 (STAT3): 0.006 µM | IC50 (NCI-N87): 0.01 µM | IC50 (MDA-MB-468): 0.0052 µM

CS(=O)(=O)C1COCc2cc3sc(C(=O)Nc4cc(Cl)nc(Oc5ccc(Cl)cc5)c4)cc3cc21 (stereo not drawn) [Example 12, N-(2-chloro-6-(4-chlorophenoxy)pyridin-4-yl)-5-(methylsulfonyl)-5,8-dihydro-6H-thieno[3,2-g]isochromene-2-carboxamide]
IC50 (STAT3): 0.003 µM | IC50 (NCI-N87): 0.0018 µM | IC50 (MDA-MB-468): 0.0028 µM

CS(=O)(=O)C1(F)CCOc2cc3sc(C(=O)Nc4cc(Cl)nc(Oc5ccc(Cl)cc5)c4)cc3cc21 (stereo not drawn) [Example 13, N-(2-chloro-6-(4-chlorophenoxy)pyridin-4-yl)-4-fluoro-4-(methylsulfonyl)-3,4-dihydro-2H-thieno[3,2-g]chromene-7-carboxamide]
IC50 (STAT3): 0.0081 µM | IC50 (NCI-N87): 0.025 µM | IC50 (MDA-MB-468): 0.0066 µM

CS(=O)(=O)C1CCC(F)(F)c2cc3sc(C(=O)Nc4cc(Cl)nc(Oc5ccc(Cl)cc5)c4)cc3cc21 (stereo not drawn) [Example 14, N-(2-chloro-6-(4-chlorophenoxy)pyridin-4-yl)-8,8-difluoro-5-(methylsulfonyl)-5,6,7,8-tetrahydronaphtho[2,3-b]thiophene-2-carboxamide]
IC50 (STAT3): 0.029 µM | IC50 (NCI-N87): 0.16 µM | IC50 (MDA-MB-468): 0.026 µM

Cc1ccc(Oc2cc(NC(=O)c3cc4cc5c(cc4s3)OCCC5S(C)(=O)=O)cc(Cl)n2)cc1 (stereo not drawn) [Example 15, N-(2-chloro-6-(p-tolyloxy)pyridin-4-yl)-4-(methylsulfonyl)-3,4-dihydro-2H-thieno[3,2-g]chromene-7-carboxamide]
IC50 (STAT3): 0.018 µM | IC50 (NCI-N87): 0.035 µM | IC50 (MDA-MB-468): 0.0089 µM

CS(=O)(=O)C1CCOc2cc3sc(C(=O)Nc4cc(Cl)nc(Oc5cc(Cl)ccc5F)c4)cc3cc21 (stereo not drawn) [Example 35, N-(2-chloro-6-(5-chloro-2-fluorophenoxy)pyridin-4-yl)-4-(methylsulfonyl)-3,4-dihydro-2H-thieno[3,2-g]chromene-7-carboxamide]
IC50 (STAT3): 0.01 µM

CS(=O)(=O)C1CCOc2cc3sc(C(=O)Nc4cc(Cl)nc(Oc5cccc(Cl)c5F)c4)cc3cc21 (stereo not drawn) [Example 36, N-(2-chloro-6-(3-chloro-2-fluorophenoxy)pyridin-4-yl)-4-(methylsulfonyl)-3,4-dihydro-2H-thieno[3,2-g]chromene-7-carboxamide]
IC50 (STAT3): 0.014 µM

Cc1ccc(Oc2cc(NC(=O)c3cc4cc5c(cc4s3)OCCC5S(C)(=O)=O)cc(Cl)n2)cc1Cl (stereo not drawn) [Example 38, N-(2-chloro-6-(3-chloro-4-methylphenoxy)pyridin-4-yl)-4-(methylsulfonyl)-3,4-dihydro-2H-thieno[3,2-g]chromene-7-carboxamide]
IC50 (STAT3): 0.0088 µM

CS(=O)(=O)C1CCOc2cc3sc(C(=O)Nc4cc(Cl)nc(Oc5ccccc5C(F)(F)F)c4)cc3cc21 (stereo not drawn) [Example 39, N-(2-chloro-6-(2-(trifluoromethyl)phenoxy)pyridin-4-yl)-4-(methylsulfonyl)-3,4-dihydro-2H-thieno[3,2-g]chromene-7-carboxamide]
IC50 (STAT3): 0.014 µM

CS(=O)(=O)N1CCNc2cc3sc(C(=O)Nc4cc(Cl)nc(Oc5ccc(Cl)cc5)c4)cc3cc21 [Example 50, N-(2-chloro-6-(4-chlorophenoxy)pyridin-4-yl)-1-(methylsulfonyl)-1,2,3,4-tetrahydrothieno[2,3-g]quinoxaline-7-carboxamide]
IC50 (STAT3): 0.0082 µM | IC50 (NCI-N87): 0.0091 µM

CC(C)(c1ccc(Cl)cc1)c1cc(Cl)cc(NC(=O)c2cc3cc4c(cc3s2)OCCN4S(C)(=O)=O)c1 [Example 56, N-(3-chloro-5-(2-(4-chlorophenyl)propan-2-yl)phenyl)-1-(methylsulfonyl)-2,3-dihydro-1H-thieno[3′,2′:4,5]benzo[1,2-b][1,4]oxazine-7-carboxamide]
IC50 (STAT3): 0.0028 µM | IC50 (NCI-N87): 0.019 µM
